One data set relates to OvCAR3 cells. Put plainly: Cellular proliferation/cytotoxicity assay (Alamar Blue), OvCAR3 cells. In kind it is cell-based. Conditions: Homo sapiens, OVCAR-3, 72 h, Alamar Blue (Resazurin), read-out: Anti-proliferative/Cytotoxic activity (OvCAR3 cells). An excerpt:
Viabilities are expressed as % values.

The subject of data set [1] is A549 cells. The data set is described as follows: Cellular proliferation/cytotoxicity assay (Alamar Blue), A549 cells. Conditions: read-out: Anti-proliferative/Cytotoxic activity (A549 cells).
Method: (§1) The anti-proliferative activity of the compounds as described herein, is evaluated using the OvCAR3, HCT116 and A549 cell lines and the Alamar Blue (Resazurin) cell viability assay (O'Brien et al. Eur J Biochem 267, 5421-5426, 2000). Resazurin is reduced to the fluorescent resorufin by cellular dehydrogenase activity, correlating with viable, proliferating cells. Test compounds are dissolved as 10 mM solutions in DMSO and subsequently diluted. Cells like HCT116 or A549 cells were seeded into 96 well flat bottom plates at a density of 10000 cells/well (OvCAR3 cells), 1000 cells/well (HCT116 cells) or 2000 cells/well (A549 cells) in a volume of 200 μl/well. 24 hours after seeding, 1 μl each of the compound dilutions are added into each well of the 96 well plates. Each compound dilution is tested as at least as duplicates. Wells containing untreated control cells were filled with 200 μl DMEM (Dulbecco's Modified Eagle Medium) containing 0.5 vol % v:v DMSO. The cells are then incubated with the substances for 72 h at 37° C. in a humidified atmosphere containing 5 vol % CO2. To determine the viability of the cells, 20 μl of a Resazurin solution (90 mg/l) are added. After 4 h incubation at 37° C., the fluorescence is measured by extinction at ? =544 nm and an emission of ? =590 nm (Wallac Victor2; Perkin Elmer, USA). For the calculation of the cell viability, the emission value from untreated cells is set as 100% viability and the fluorescence intensity of treated cells are set in relation to the values of untreated cells. Viabilities are expressed as % values. The corresponding IC50 values of the compounds for cytotoxic activity are determined from the concentration-effect curves by means of non-linear regression. The analysis of the data is performed using a biostatistical program (Graph Pad Prism, USA).
Another data set concerns phospho-Akt (Ser473). Put plainly: Cellular PI3K/Akt pathway assay (phospho-Akt ELISA). Conditions: MCF7 cells, β-Heregulin stimulated, 48 h, phospho-Akt1 (Ser473) ELISA. In kind it is cell-based. The procedure: In order to study the cellular activity of the compounds according to the present invention, an Enzyme Linked Immunosorbent Assay (ELISA)-based assay has been used specific phospho-AKT. The assay is based on a Sandwich ELISA kit (PathScan™ Phospho-Akt1 (Ser473); Cell Signaling, USA; #7160).
The ELISA Kit detects endogenous levels of phosphorylated Akt protein. A phospho-Akt (Ser473) antibody (Cell Signaling, USA; #9271) has been coated onto the microwells. After incubation with cell lysates, the coated antibody captures the phosphorylated Akt protein. Following extensive washing, Akt1 monoclonal antibody (Cell Signaling, USA; #2967) is added to detect the captured phospho-Akt1 protein. HRP-linked anti-mouse antibody (HRP: horseradish peroxidase; Cell Signaling, USA; #7076) is then used to recognize the bound detection antibody. HRP substrate (=3,3′,5,5′-tetramethylbenzidine (TMB); Cell Signaling, USA; #7160) is added to develop colour. The magnitude of optical density for this developed color is proportional to the quantity of phosphorylated Akt protein. MCF7 cells (ATCC HTB-22) are seeded into 96 well fate bottom plates at a density of 10000 cells/well. 24 hours after seeding, the cells are serum starved using low-serum medium (IMEM media including 0.1% charcoal treated FCS (FCS: fetal calf serum)). […] To stimulate Akt phosphorylation, β-Heregulin (20 ng/ml β-HRG) is added in parallel to the compounds. Wells containing unstimulated control cells (no β-Heregulin stimulation) are incubated with or without the diluted compound. Wells containing untreated control cells (no compound) are filled with medium containing 0.5% v:v DMSO and are or are not stimulated with β-Heregulin.
Cells are harvested and lysed with brief sonification in 1× cell lysis buffer (20 mM Tris (pH7.5), 150 mM NaCl, 1 mM ethylene diaminetetraacetate (EDTA), 1 mM ethylene glycolbis(2-aminoethyl)-N,N,N′,N′-tetraacetic acid (EGTA), 1 vol % Triton X-100, 2.5 mM sodium pyrophosphate, 1 mM β-glycerolphosphate, 1 mM Na3VO4, 1 μg/ml leupeptin). The lysate is centrifuged for 10 min. at 4° C. and the supernatant is transferred to a new tube. 100 μl of sample diluent (0.1 vol % Tween-20, 0.1 vol % sodium azide in phosphate buffered saline (PBS)) are added to a microcentrifuge tube and 100 μl of cell lysate are transferred into the tube and vortexed. 100 μl of each diluted cell lysate are added to the appropriate ELISA well, and incubated overnight at 4° C. The plates are washed 4 times with 1× wash buffer (1 vol % tween-20, 0.33 vol % thymol, in PBS). Next 100 μl of detection antibody (Akt1 (2H10) monoclonal detection antibody; Cell Signaling, USA; #2967) are added to each well and incubation continued for 1 h at 37° C. The washing procedure is repeated between each step. 100 μl of secondary antibody (anti-mouse IgG HRP-linked antibody; Cell Signaling, USA; #7076) are added to each well and incubated for 30 min. at 37° C. Than, 100 μl of TMB substrate (0.05% 3,3′,5,5′ tetramethylbenzidine, 0.1% hydrogen peroxide, complex polypeptides in a buffered solution; Cell Signaling, USA; #7160) are added to each well and incubated for 30 min. at 25° C. Finally 100 μl of STOP solution (0.05 vol % α and β unsaturated carbonyl compound) are added to each well and the plate are shaked gently. The absorbance is measured at ? 450 nm (Wallac Victor2; Perkin Elmer, USA) within 30 min. after adding the STOP solution. The analysis of the data is performed using a statistical program (Excel; Microsoft, USA). Preferred compounds show an inhibitory activity towards Akt phosphorylation below 10 μM.

For data set [2], the system named is A549 cells.
Method: as §1
[3] abbreviates: A549 cells, 72 h, Alamar Blue (Resazurin).

Read-outs that look alike come from different tables or passages of the source. Bounds are passed on as bounds.

`N#Cc1cccn2c(-c3ccccc3)c(-c3ccc(CN4CCC(c5n[nH]c(-c6ccccn6)n5)CC4)cc3)nc12` [Example 5, 3-phenyl-2-(4-{[4-(5-pyridin-2-yl-1,2,4-triazol-3-yl)piperidin-1-yl]methyl}phenyl)imidazo[1,2-a]pyridine-8-carbonitrile]: the IC50 in the data set on OvCAR3 cells was below 10 µM; with A549 cells [1] (Homo sapiens, A549, 72 h) it was below 10 µM. On to `Clc1ccc2nc(-c3ccc(CN4CCC(c5n[nH]c(-c6ccccn6)n5)CC4)cc3)c(-c3ccccc3)n2n1` [Example 31, 6-chloro-3-phenyl-2-(4-{[4-(5-pyridin-2-yl-1,2,4-triazol-3-yl)piperidin-1-yl]methyl}phenyl)imidazo[1,2-b]pyridazine], for which the IC50 with OvCAR3 cells was below 10 µM; in the data set with A549 cells [1] (Homo sapiens, A549, 72 h) it was above 10 µM.

In the case of `N=C(N)c1cccn2c(-c3ccccc3)c(-c3ccc(CN4CCC(c5n[nH]c(-c6ccccn6)n5)CC4)cc3)nc12` [Example 33, 3-phenyl-2-(4-{[4-(5-pyridin-2-yl-1,2,4-triazol-3-yl)piperidin-1-yl]methyl}phenyl)imidazo[1,2-a]pyridine-8-carboximidamide], the IC50 is below 10 µM in the data set with OvCAR3 cells and below 10 µM with A549 cells [1] (Homo sapiens, A549, 72 h).

For the molecule `NC(=O)c1cccn2c(-c3ccccc3)c(-c3ccc(CN4CCC(c5n[nH]c(-c6ccccn6)n5)CC4)cc3)nc12` [Example 40, 3-phenyl-2-(4-{[4-(5-pyridin-2-yl-1,2,4-triazol-3-yl)piperidin-1-yl]methyl}phenyl)imidazo[1,2-a]pyridine-8-carboxamide], the IC50 in the data set with OvCAR3 cells was below 10 µM; with A549 cells [1] (Homo sapiens, A549, 72 h) it was above 10 µM.

In the case of `c1ccc(-c2nnc(C3CCN(Cc4ccc(-c5nc6sccn6c5-c5ncco5)cc4)CC3)[nH]2)nc1` [Example 43, 5-(1,3-oxazol-2-yl)-6-(4-{[4-(5-pyridin-2-yl-4H-1,2,4-triazol-3-yl)piperidin-1-yl]methyl}phenyl)imidazo[2,1-b][1,3]thiazole], the IC50 with phospho-Akt (Ser473) (Homo sapiens) lay within 1 to 10 µM. On to `N#Cc1cccn2c(-c3ccccc3)c(-c3ccc(CN4CCC(c5nnc(-c6ccncc6)[nH]5)CC4)cc3)nc12` [Example 59, ′3-phenyl-2-(4-{[4-(5-pyridin-4-yl-4H-1,2,4-triazol-3-yl)piperidin-1-yl]methyl}phenyl)imidazo[1,2-a]pyridine-8-carbonitrile], for which the IC50 was below 1 µM in the data set on phospho-Akt (Ser473) and below 10 µM with A549 cells [2].

For `Cc1cccc(-c2nnc(C3CCN(Cc4ccc(-c5nc6cc(C#N)ccn6c5-c5ccccc5)cc4)CC3)[nH]2)n1` [Example 61, 2-[4-({4-[5-(6-methylpyridin-2-yl)-4H-1,2,4-triazol-3-yl]piperidin-1-yl}methyl)phenyl]-3-phenylimidazo[1,2-a]pyridine-7-carbonitrile], the IC50 is below 1 µM in the data set on phospho-Akt (Ser473) (Homo sapiens) and above 10 µM in the data set on A549 cells [1] (Homo sapiens, A549, 72 h). On the same counts, the results for `Cc1cccc(-c2nnc(C3CCN(Cc4ccc(-c5nc6c(C#N)cccn6c5-c5ccccc5)cc4)CC3)[nH]2)n1` [Example 62, 2-[4-({4-[5-(6-methylpyridin-2-yl)-4H-1,2,4-triazol-3-yl]piperidin-1-yl}methyl)phenyl]-3-phenylimidazo[1,2-a]pyridine-8-carbonitrile] are below 1 µM and above 10 µM.

`COc1nccn2c(-c3ccccc3)c(-c3ccc(CN4CCC(c5nnc(-c6cccc(C)n6)[nH]5)CC4)cc3)nc12` [Example 65, ′8-methoxy-2-[4-({4-[5-(6-methylpyridin-2-yl)-4H-1,2,4-triazol-3-yl]piperidin-1-yl}methyl)phenyl]-3-phenylimidazo[1,2-a]pyrazine]: the IC50 in the data set with phospho-Akt (Ser473) is below 1 µM; with A549 cells [1] (setting [3]), below 10 µM. On to `Cc1cccc(-c2nnc(C3CCN(Cc4ccc(-c5nc6sccn6c5-c5ccccc5)cc4)CC3)[nH]2)n1` [Example 66, ′6-[4-({4-[5-(6-methylpyridin-2-yl)-4H-1,2,4-triazol-3-yl]piperidin-1-yl}methyl)phenyl]-5-phenylimidazo[2,1-b][1,3]thiazole], for which the IC50 in the data set with phospho-Akt (Ser473) is below 1 µM; in the data set on A549 cells [1] (setting [3]) it was below 10 µM. As for `COc1ccn2c(-c3ccccc3)c(-c3ccc(CN4CCC(c5nnc(-c6cccc(C)n6)[nH]5)CC4)cc3)nc2c1` [Example 68, ′7-methoxy-2-[4-({4-[5-(6-methylpyridin-2-yl)-4H-1,2,4-triazol-3-yl]piperidin-1-yl}methyl)phenyl]-3-phenylimidazo[1,2-a]pyridine], the figures for the IC50 in the data set with phospho-Akt (Ser473) and in the data set on A549 cells [2] were below 1 µM and below 10 µM, respectively. On to `Cc1ccc(-c2nnc(C3CCN(Cc4ccc(-c5nc6c(C#N)cccn6c5-c5ccccc5)cc4)CC3)[nH]2)nc1` [Example 71, ′2-[4-({4-[5-(5-methylpyridin-2-yl)-4H-1,2,4-triazol-3-yl]piperidin-1-yl}methyl)phenyl]-3-phenylimidazo[1,2-a]pyridine-8-carbonitrile], for which the IC50 in the data set on phospho-Akt (Ser473) was below 1 µM; in the data set with A549 cells [2] it was below 10 µM. Regarding `N#Cc1cccn2c(-c3ccccc3)c(-c3ccc(CN4CCC(c5nnc(-c6ncccn6)[nH]5)CC4)cc3)nc12` [Example 77, 3-phenyl-2-[4-({4-[5-(pyrimidin-2-yl)-4H-1,2,4-triazol-3-yl]piperidin-1-yl}methyl)phenyl]imidazo[1,2-a]pyridine-8-carbonitrile], the IC50 with phospho-Akt (Ser473) (Homo sapiens) was below 1 µM; in the data set on A549 cells [1] (Homo sapiens, A549, 72 h), above 10 µM. With `c1ccc(-c2c(-c3ccc(CN4CCC(c5nnc(-c6ccco6)[nH]5)CC4)cc3)nc3sccn23)cc1` [Example 93, ′6-[4-({4-[5-(2-furyl)-4H-1,2,4-triazol-3-yl]piperidin-1-yl}methyl)phenyl]-5-phenylimidazo[2,1-b][1,3]thiazole], the IC50 with phospho-Akt (Ser473) was below 1 µM; in the data set with A549 cells [1] (setting [3]), below 10 µM. With `N#Cc1cccn2c(-c3ccccc3)c(-c3ccc(CN4CCC(c5nnc(-c6cccs6)[nH]5)CC4)cc3)nc12` [Example 98, ′3-phenyl-2-[4-({4-[5-(2-thienyl)-4H-1,2,4-triazol-3-yl]piperidin-1-yl}methyl)phenyl]imidazo[1,2-a]pyridine-8-carbonitrile], the figures for the IC50 with phospho-Akt (Ser473) and in the data set with A549 cells [2] were below 1 µM and above 10 µM, respectively. For `c1ccc(-c2c(-c3ccc(CN4CCC(c5nnc(-c6ccc[nH]6)[nH]5)CC4)cc3)nc3ncccn23)cc1` [Example 106, ′3-phenyl-2-[4-({4-[5-(1H-pyrrol-2-yl)-4H-1,2,4-triazol-3-yl]piperidin-1-yl}methyl)phenyl]imidazo[1,2-a]pyrimidine], the figures for the IC50 with phospho-Akt (Ser473) and in the data set with A549 cells [1] (setting [3]) were below 1 µM and above 10 µM, respectively. For the molecule `N#Cc1cccn2c(-c3ccccc3)c(-c3ccc(CN4CCC(c5nnc(-c6ccccc6)[nH]5)CC4)cc3)nc12` [Example 117, 3-phenyl-2-(4-{[4-(5-phenyl-4H-1,2,4-triazol-3-yl)piperidin-1-yl]methyl}phenyl)imidazo[1,2-a]pyridine-8-carbonitrile], the IC50 in the data set on phospho-Akt (Ser473) (Homo sapiens) was below 1 µM; in the data set with A549 cells [1] (Homo sapiens, A549, 72 h) it was above 10 µM.

In the case of `COC(=O)c1ccn2c(-c3ccccc3)c(-c3ccc(CN4CCC(c5nnc(-c6ccccn6)[nH]5)CC4)cc3)nc2c1` [Example 124, methyl 3-phenyl-2-[4-({4-[5-(pyridin-2-yl)-4H-1,2,4-triazol-3-yl]piperidin-1-yl}methyl)phenyl]imidazo[1,2-a]pyridine-7-carboxylate], the IC50 in the data set with phospho-Akt (Ser473) (Homo sapiens) is below 1 µM; with A549 cells [1] (Homo sapiens, A549, 72 h), above 10 µM.

The record behind these values is patent US9387204B2, “Fused bicyclic imidazoles” (BAYER INTELLECTUAL PROPERTY GmbH, priority 2007, dated 2016).
